In publication PMC5923171, “Novel Zinc-Attenuating Compounds as Potent Broad-Spectrum Antifungal Agents with In Vitro and In Vivo Efficacy” (Antimicrobial Agents and Chemotherapy, 2018):
≈ marks a conversion by molar mass, not a printed value.

How the values were obtained:
[1] = Potentiometric titration, ligand-Zn(II) complex formation; type: binding; conditions: DMSO-water (70:30, vol/vol), 0.5 eq of Zn^2+
Method: The Zn^2+-binding properties of ZAC307 and ZAC989 were further evaluated using a potentiometric assay, where pH is measured as a function of base (NaOH) added to the compound in either the absence or presence of metal. […] To determine the deprotonation constant, a solution of 1 mM ZAC307 or ZAC989 was titrated with 0.3 M NaOH at constant ionic strength (Fig. 2A and B). In a second run, the same titration was performed in the presence of 0.5 eq of Zn^2+ for ZAC307 and ZAC989. A shift in the pH curve in the presence of the metal (ZAC307, 0.5 eq of Zn^2+ [Fig. 2A]) compared to the absence of the metal (ZAC307 [Fig. 2A]) indicates binding of Zn^2+ to the compound. The measured pH data were analyzed with the Hyperquad program suite, taking into account all relevant equilibrium constants, including also the constants for metal hydroxylation. The analysis provides the pKa values and metal complex stability constants, as well as ligand-metal complex speciation calculation, indicating how many ZAC molecules are involved in coordinating the Zn^2+ ion at different pH values. […] ZAC989 bound copper with the formation constants log β1, log β2, and log β3 of 7.83, 13.37, and 20.62, respectively. The most dominant ZAC989-copper stoichiometry was a 3:1 stoichiometry (Fig. 2E).
Potentiometric measurements were carried out in DMSO-water (70:30, vol/vol) at 25°C as described previously ([22]). Titrations were performed with a pH meter (Denver Instruments) utilizing a glass electrode with AgCl reference filled with 3.0 M KCl. The electrode was equilibrated in DMSO-water (70:30, vol/vol) for at least 1 h before use. All experiments were performed at a constant ionic strength (0.1 M NaClO4). Three milliliters of a solution containing 1 mM compound was titrated with 0.3 M NaOH by manual additions in 1- to 5-μl increments with magnetic stirring. The metal-ligand binding constants were obtained from titrations of the metal complex solutions prepared in a 1:2 metal-to-ligand ratio. The titration data were refined by the nonlinear least-squares refinement program Hyperquad2013 ([37]) to determine the deprotonation and stability constants.

[2] = Potentiometric titration with MgCl2; type: binding; conditions: DMSO-water (70:30, vol/vol)
[3] = system: C. parapsilosis ATCC 22019; test: Antifungal susceptibility testing (MIC); type: cell-based, Candida parapsilosis; conditions: Lodderomyces parapsilosis, ATCC22019; at least 50% growth inhibition, RPMI, 24 h, 34°C
Method: (§1) Antifungal susceptibility testing was carried out as described previously ([38], [39]), with a few modifications. Briefly, for each yeast or mold growth inhibition assay, frozen stocks of yeast cells or spores were diluted to a final concentration of 0.5 × 10^5 to 2.5 × 10^5 CFU/ml in sterile water. ZAC989, ZAC307, and ZAC623 were dissolved in DMSO to 10 mM stocks from which half-log serial dilutions were prepared. Growth assays were subsequently performed by pipetting 3 μl of compound dissolved in DMSO (giving a final concentration of 1.5% DMSO), 100 μl of cell-spore suspension, and 97 μl of 2× RPMI medium (20.8 g/liter of RPMI 1640 medium, 69.06 g/liter of morpholinepropanesulfonic acid [MOPS], 36 g/liter of glucose) into a microtiter plate that was incubated for 24 h (yeasts) or 48 to 72 h (molds) at 34°C. Fungal growth was determined spectrophotometrically by optical density reading of each well at a wavelength of 492 nm on a Victor X5 (Perkin-Elmer) plate reader. […] Standard errors between repeated experiments were generally below 5%. The growth effect of exogenous addition of various divalent metals was evaluated by performing the antifungal susceptibility assay in the presence of 5 μM ZAC989 or ZAC307 and with increasing concentrations (0.003 to 50 μM) of ZnSO4, CuSO4, (NH4)2Fe(SO4)2, MgCl2, and CaCl2.

C. krusei ATCC 6258 = test: Antifungal susceptibility testing (MIC); type: cell-based, Candida krusei; conditions: Pichia kudriavzevii, ATCC6258; at least 50% growth inhibition, RPMI, 24 h, 34°C
Method: as §1

[4] = system: A. fumigatus AF721 (ΔzrfA ΔzrfB ΔzrfC); test: Growth capacity in sRPMI medium, 24-well plates; type: cell-based, Aspergillus fumigatus
HepG2 cells = test: Human hepatocyte (HepG2) proliferation assay; type: cell-based; conditions: for EC50: 24 h exposure, XTT
Method: In each well of a 96-well tissue culture plate (GR-655180; Grenier), 10,000 human hepatocytes (HepG2) (85011430; […] Sigma]) supplemented with 2 mM L-[…]-020-1B; Biological Industries), 1% nonessential amino acids (XC-[…]/100; Biosera), and 10% fetal bovine serum (BI-04-007-1A; Biological Industries), and plates were incubated overnight at 37°C and 5% CO2. […] The plate was incubated for a further 24 h or 72 h at 37°C and 5% CO2. The medium was then replaced with 100 μl of freshly prepared 2,3-bis-(2-methoxy-4-nitro-5-sulfophenyl)-2H-tetrazolium-5-carboxanilide salt (XTT) sodium salt solution (0.5 mg/ml of XTT; […]; Sigma) in RPMI 1640 ([…]; Sigma-Aldrich) with 3.83 μg/ml of phenazine methosulfate ([…]; Sigma-Aldrich) and incubated 2 to 3 h at 37°C and 5% CO2 ([43]). The color reaction was measured on Victor X5 plate reader (Perkin-Elmer) at OD450, and the half-maximal effective concentration (EC50) was calculated. Tamoxifen (85256; Sigma) was used as a positive-control compound.

A. fumigatus [5] = conditions: combination with amphotericin B lipid complex (ABLC), compared with either agent alone; cited from earlier work
[6] = system: invasive pulmonary aspergillosis; set-up: method as in PMID 26438863; conditions: after 7 days, compared to vehicle treatment; cited from earlier work
A. fumigatus [7] = system: A. fumigatus; set-up: method as in PMID 27401578; conditions: cited from earlier work

Row | SMILES | formation constant log β1 (1:1 ligand-Zn(II) complex) [1] | formation constant log β2 (2:1 ligand-Zn(II) complex) [1] | formation constant log β3 (3:1 ligand-Zn(II) complex) [1] | Mg^2+ binding [2] | MIC [3] | MIC (C. krusei ATCC 6258) | growth capacity in the presence of 50 μM zinc (in words) [4] | EC50 (HepG2 cells) | effect on the proliferation of HepG2 cells (in words) (HepG2 cells) | survival times and tissue burden (A. fumigatus [5]) | survival [6] | survival times (A. fumigatus [7]; in combination with caspofungin, compared to either drug alone, murine models of invasive aspergillosis) | survival and fungal burden (A. fumigatus [7]; monotherapy)
1 | Cc1cc(O)n(-c2cc(N3CC[C@H](Oc4cnccc4C#N)C3)ncn2)n1 [ZAC989, 3-[(3S)-1-[6-(5-hydroxy-3-methyl-pyrazol-1-yl)pyrimidin-4-yl]pyrrolidin-3-yl]oxy-pyridine-4-carbonitrile] | 7.35 | 14.30 | 19.71 | negligible | 0.8 µg/mL (≈ 2.2 µM) | 0.8 µg/mL (≈ 2.2 µM) | noticeably inhibited the growth capacity of AF721 | >36 µg/mL | – | – | – | – | –
2 | CN(C)c1cc(-n2nc(-c3ccccc3)cc2O)ncn1 [ZAC307, 2-[6-(dimethylamino)pyrimidin-4-yl]-5-phenyl-pyrazol-3-ol] | 7.47 | 13.27 | 18.14 | negligible | 0.4 µg/mL (≈ 1.42 µM) | 0.4 µg/mL (≈ 1.42 µM) | – | – | – | – | – | – | –
3 | O=C(O)CN(CCN(CC(=O)O)CC(=O)O)CC(=O)O [EDTA] | – | – | – | – | – | – | – | >29 µg/mL | did not affect the proliferation of HepG2 cells | improved survival times and a lower tissue burden of A. fumigatus | – | – | –
4 | c1ccc(CN(CCN(Cc2ccccn2)Cc2ccccn2)Cc2ccccn2)nc1 [TPEN, N,N,N’,N’-tetrakis(2-pyridylmethyl)-ethylenediamine] | – | – | – | – | – | – | – | – | – | – | significantly increase survival | significantly increased survival times | significant improvements in survival with concomitant reduction in fungal burden
